Test results reported in patent US12521439B2, “Methods and materials for modulating Nrf2 pathway” (The General Hospital Corporation, priority 2019, dated 2026).

How the values were obtained:
[1] = tested on: patient-derived GBM8 GSC tumors; test: FDG-PET imaging of orthotopic GSC brain tumors; assay type: in vivo, mice; details: 3 doses of 10 mg/kg within 24 h, imaged 4 h after last dose; tumor to muscle ratio
Description: In vivo Tumor Models: Animal experiments performed by our laboratory were approved by the Massachusetts General Hospital Subcommittee on Research Animal Care. Female athymic nude mice (6-8 weeks) were used in all studies with the exception of pharmacokinetics analysis. For brain tumors xenograft model, GBM8 cells (1×10^5 cells/mouse) stably expressing Fluc were stereotactically implanted into the left striatum of animals. Following implantation, animals were regularly imaged for Fluc to monitor brain tumor growth. To generate the breast cancer model, MDA-MB-231 cells (2.5×10^5 cells/mouse) expressing Fluc were mixed with Matrigel 1:1 (v/v) (BD Matrigel) and injected into the mammary fat pad of mice. Tris-OBT was dissolved in PBS and administered intraperitoneally. Tumor volumes were measured using a caliper and calculated according to the following formula: volume=(width)^2×length/2. […]
FDG-PET imaging: Mouse PET/CT scans (n=6, 3 per group) were performed sequentially using a custom-designed mouse bed and PET/CT gantry adapter. […] The same ROIs are then copied to the matching PET images for quantification of the ^18F-FDG PET signal as the standard uptake values (SUVs). […]

MDA-MB231 cells = test: Cell viability (CellTiter-Glo), MDA-MB231; assay type: cell-based, human; details: co-treatment MLN4924 (1 μM), three days
Procedure: Cell culture: MDA-MB-231 and U87 (U87-MG) cells were obtained from the American Type Culture Collection (ATCC). 293T human embryonic kidney fibroblasts were provided by Dr. Xandra Breakefield (Massachusetts General Hospital). All three cell lines were grown in Dulbecco's modified Eagle medium supplemented with 10% fetal bovine serum (Gemini Bio-products), 100 U penicillin, and 0.1 mg/mL streptomycin (Sigma). All cells were maintained at 37° C. in a humidified 5% CO2 incubator. GSCs were obtained from tumor tissues of GBM patients following surgical resection, under approval from the corresponding Institutional Review Board. These cells have been previously characterized (ref. 37-39) and were maintained in culture as neurospheres in Neurobasal medium (Gibco) supplemented with heparin (2 μg/mL; Sigma) and recombinant EGF (20 ng/mL) and bFGF-2 (10 ng/mL; Peprotech). Human Astrocytes were obtained from ScienCell and cultured in Astrocytes Medium (ScienCell)
Cell viability: Cells were plated in 96-well plates and treated with the corresponding compounds. Cell viability was measured by adding 25 μl/well of CellTiter-Glo (Promega) followed by 10 minutes incubation and transfer to a white 96-well plate. Bioluminescence was quantified using Synergy HTX multimode reader (Biotek).

CT2A mouse glioma cells = test: Cytokine/chemokine array of glioma cell lysates; assay type: cell-based; details: OBT 4 μM, 24 hrs
Procedure: To evaluate the effect of OBT on glioma secretome, CT2A mouse glioma cells were treated with OBT (4 μM) for 24 hrs and analyzed cell lysates by cytokine/chemokine array. GBM cells responded to OBT, Nrf2 and ROS induction, by activating several cytokines known to be involved in immune cell chemotaxis and migration (CCL2, CXCL10, IL-6). […] These innate immunity-related factors may directly contribute to control tumor growth or shape the development of adaptive immunity. Thus, OBT can induce factors that induces activation of tumor immune response.

CT2A mouse gliomas = test: Immunophenotyping of tumor-infiltrating immune cells (flow cytometry); assay type: in vivo, C57BL/6 mice
Procedure: The effect of OBT on glioma immunomodulation in vivo was next evaluated. 50,000 CT2A cells expressing Fluc were implanted in the striatum of immunocompetent C57BL/6 mice. Two weeks post-injection, mice were i.p. injected with OBT (7.5 mg/kg body weight/day) or PBS/DMSO control, over 4 days (n=6/group). Mice were sacrificed, brains removed, and tumor tissues dissected out and homogenized. […] OBT increased intratumoral CD8+ cytotoxic T cells with higher levels of both Ki-67 and granzyme B (markers for increased activation of effector cells, abrogation of suppressive immune cells) and decreased CD4+ regulatory T cells (Treg; CD25^+Foxp3^+), typically used by the tumour to escape the immune system, leading to an increase in the ratio of CD8+ T cells over Tregs (FIG. 25B-D). […] CTLA-4, PD-1, Lag-3 and Tim-3 levels (hallmark for exhausted and anergic T cells) were not changed on any of these cells (FIG. 25B; only showing PD-1).

Keap1 = Keap1 (Homo sapiens, UniProt Q14145); test: Differential alkylation mass spectrometry, Keap1; assay type: binding
[2] = tested on: tumour-infiltrating CD4+ and CD8+ T cells; test: Ex vivo stimulation of tumour-infiltrating T cells (anti-CD3/anti-CD28); assay type: cell-based, mice; details: cells from OBT-treated tumours, cultured 3 days
Description: To confirm reversion of T cell exhaustion and activation of cytotoxic T cells by OBT, tumour-infiltrating CD4+ and CD8+ T cells (n=3) were isolated and cultured in the presence of anti-CD3 and anti-CD28 antibodies to mimic an antigenic stimulation.

Chain of Keap1 (Q14145 whole entry, species assumed): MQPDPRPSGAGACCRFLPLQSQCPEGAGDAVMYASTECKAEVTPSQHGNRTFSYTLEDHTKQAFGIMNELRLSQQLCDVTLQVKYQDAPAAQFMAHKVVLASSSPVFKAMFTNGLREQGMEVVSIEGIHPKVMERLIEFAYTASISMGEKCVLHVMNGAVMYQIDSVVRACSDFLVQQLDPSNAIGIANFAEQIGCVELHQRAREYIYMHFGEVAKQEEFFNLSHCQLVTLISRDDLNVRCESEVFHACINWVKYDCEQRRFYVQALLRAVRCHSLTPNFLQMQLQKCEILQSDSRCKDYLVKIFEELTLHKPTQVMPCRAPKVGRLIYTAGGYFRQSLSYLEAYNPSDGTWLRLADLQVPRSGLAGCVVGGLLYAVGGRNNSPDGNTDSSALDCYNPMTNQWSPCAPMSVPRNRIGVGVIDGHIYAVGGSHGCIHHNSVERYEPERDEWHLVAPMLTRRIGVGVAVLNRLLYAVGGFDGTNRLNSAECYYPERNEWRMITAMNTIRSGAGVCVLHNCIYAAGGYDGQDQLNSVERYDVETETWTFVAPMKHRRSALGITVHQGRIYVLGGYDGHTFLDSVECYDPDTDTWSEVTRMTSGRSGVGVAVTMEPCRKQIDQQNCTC

SMILES: COC1=CC(=O)C(O)=C/C1=C/C=C/c1ccccc1 [OBT, (Z)-2-hydroxy-5-methoxy-4-((E)-3-phenylallylidene)cyclohexa-2,5-dien-1-one]
- decrease in FDG tumor uptake [1]: ~50%
- cell death with neddylation inhibitor MLN4924 (MDA-MB231 cells): protection against cell death
- cytokines involved in immune response modulation (CD40, CXCL2, CCL5, CXCL-10, IL-6) (CT2A mouse glioma cells): induced secretion
- CD4+ regulatory T cells (Treg; CD25+Foxp3+) (CT2A mouse gliomas; 7.5 mg/kg/day i.p. over 4 days): decreased
- Ki-67 and granzyme B in CD8+ T cells (CT2A mouse gliomas; 7.5 mg/kg/day i.p. over 4 days): higher levels
- dendritic cells (CT2A mouse gliomas; 7.5 mg/kg/day i.p. over 4 days): significant increase
- intratumoral CD8+ cytotoxic T cells (CT2A mouse gliomas; 7.5 mg/kg/day i.p. over 4 days): increased
- levels of CD4+ T cells (CT2A mouse gliomas; 7.5 mg/kg/day i.p. over 4 days): did not change
- number of microglia and macrophages (CT2A mouse gliomas; 7.5 mg/kg/day i.p. over 4 days): not changed
- ratio of CD8+ T cells over Tregs (CT2A mouse gliomas; 7.5 mg/kg/day i.p. over 4 days): increase
- CTLA-4, PD-1, Lag-3 and Tim-3 levels (CT2A mouse gliomas; T cells): not changed
- CD47 (CT2A mouse gliomas; on all three cell types): significantly downregulated
- PD-L1 (CT2A mouse gliomas; on microglia, dendritic cells, macrophages): did not have an effect
- reversibility of modification at Cys151 and Cys434 (Keap1; Cys151 BTB domain, Cys434 Kelch domain): partially reversible
- covalent binding to cysteine sites of Keap1 (Keap1; differential alkylation): bind covalently to all identified cysteine sites
- response of CD4+ T cells to antigenic stimulus [2]: no change
- response of CD8+ T cells to antigenic stimulus (proliferation, Ki67, granzyme B) [2]: significantly more responsive
